ChEMBL document CHEMBL4011618, “Discovery of Potent, Selective Stem Cell Factor Receptor/Platelet Derived Growth Factor Receptor Alpha (c-KIT/PDGFRα) Dual Inhibitor for the Treatment of Imatinib-Resistant Gastrointestinal Stromal Tumors (GISTs)” (J Med Chem, 2017)
pIC50: −log10 of the molar value.

Experiments:
[1] = target: T1, Platelet-derived growth factor receptor alpha (Homo sapiens, UniProt P16234); assay: Inhibition of PDGFRalpha (unknown origin) using FAM-labeled peptide as substrate preincubated for 10 mins followed by substrate addition in presence of ATP by mobility shift assay
T1 sequence (P16234 whole entry): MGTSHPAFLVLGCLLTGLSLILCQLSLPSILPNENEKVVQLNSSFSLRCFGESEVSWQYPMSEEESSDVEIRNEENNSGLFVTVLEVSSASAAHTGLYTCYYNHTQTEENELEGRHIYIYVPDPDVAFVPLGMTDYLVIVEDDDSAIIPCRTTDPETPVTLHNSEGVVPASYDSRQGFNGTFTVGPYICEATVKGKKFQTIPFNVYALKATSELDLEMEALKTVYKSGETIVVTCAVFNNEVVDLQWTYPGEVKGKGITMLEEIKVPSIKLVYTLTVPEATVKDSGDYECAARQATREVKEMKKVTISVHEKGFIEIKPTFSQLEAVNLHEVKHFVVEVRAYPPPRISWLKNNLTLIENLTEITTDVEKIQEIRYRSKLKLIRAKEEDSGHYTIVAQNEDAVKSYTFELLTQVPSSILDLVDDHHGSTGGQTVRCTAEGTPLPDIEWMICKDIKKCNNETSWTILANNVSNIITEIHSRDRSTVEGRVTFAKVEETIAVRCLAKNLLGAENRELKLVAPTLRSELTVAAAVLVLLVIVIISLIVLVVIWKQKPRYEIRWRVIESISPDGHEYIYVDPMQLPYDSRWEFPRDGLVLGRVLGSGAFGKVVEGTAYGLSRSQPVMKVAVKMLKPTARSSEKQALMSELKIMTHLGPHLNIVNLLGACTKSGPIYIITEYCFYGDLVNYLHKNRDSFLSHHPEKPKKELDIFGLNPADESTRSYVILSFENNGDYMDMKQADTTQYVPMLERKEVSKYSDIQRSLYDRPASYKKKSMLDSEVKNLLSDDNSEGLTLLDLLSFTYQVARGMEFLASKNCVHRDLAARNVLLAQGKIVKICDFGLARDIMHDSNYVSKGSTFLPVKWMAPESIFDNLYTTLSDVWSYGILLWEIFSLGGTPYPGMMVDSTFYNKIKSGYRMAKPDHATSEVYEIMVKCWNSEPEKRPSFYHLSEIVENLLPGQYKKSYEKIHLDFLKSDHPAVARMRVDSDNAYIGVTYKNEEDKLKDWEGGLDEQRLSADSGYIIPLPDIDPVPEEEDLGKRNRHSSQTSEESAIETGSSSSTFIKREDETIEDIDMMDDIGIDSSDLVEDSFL

[2] = target: Vascular endothelial growth factor receptor 2 (Homo sapiens, UniProt P35968)
Chain of Vascular endothelial growth factor receptor 2 (P35968 whole entry): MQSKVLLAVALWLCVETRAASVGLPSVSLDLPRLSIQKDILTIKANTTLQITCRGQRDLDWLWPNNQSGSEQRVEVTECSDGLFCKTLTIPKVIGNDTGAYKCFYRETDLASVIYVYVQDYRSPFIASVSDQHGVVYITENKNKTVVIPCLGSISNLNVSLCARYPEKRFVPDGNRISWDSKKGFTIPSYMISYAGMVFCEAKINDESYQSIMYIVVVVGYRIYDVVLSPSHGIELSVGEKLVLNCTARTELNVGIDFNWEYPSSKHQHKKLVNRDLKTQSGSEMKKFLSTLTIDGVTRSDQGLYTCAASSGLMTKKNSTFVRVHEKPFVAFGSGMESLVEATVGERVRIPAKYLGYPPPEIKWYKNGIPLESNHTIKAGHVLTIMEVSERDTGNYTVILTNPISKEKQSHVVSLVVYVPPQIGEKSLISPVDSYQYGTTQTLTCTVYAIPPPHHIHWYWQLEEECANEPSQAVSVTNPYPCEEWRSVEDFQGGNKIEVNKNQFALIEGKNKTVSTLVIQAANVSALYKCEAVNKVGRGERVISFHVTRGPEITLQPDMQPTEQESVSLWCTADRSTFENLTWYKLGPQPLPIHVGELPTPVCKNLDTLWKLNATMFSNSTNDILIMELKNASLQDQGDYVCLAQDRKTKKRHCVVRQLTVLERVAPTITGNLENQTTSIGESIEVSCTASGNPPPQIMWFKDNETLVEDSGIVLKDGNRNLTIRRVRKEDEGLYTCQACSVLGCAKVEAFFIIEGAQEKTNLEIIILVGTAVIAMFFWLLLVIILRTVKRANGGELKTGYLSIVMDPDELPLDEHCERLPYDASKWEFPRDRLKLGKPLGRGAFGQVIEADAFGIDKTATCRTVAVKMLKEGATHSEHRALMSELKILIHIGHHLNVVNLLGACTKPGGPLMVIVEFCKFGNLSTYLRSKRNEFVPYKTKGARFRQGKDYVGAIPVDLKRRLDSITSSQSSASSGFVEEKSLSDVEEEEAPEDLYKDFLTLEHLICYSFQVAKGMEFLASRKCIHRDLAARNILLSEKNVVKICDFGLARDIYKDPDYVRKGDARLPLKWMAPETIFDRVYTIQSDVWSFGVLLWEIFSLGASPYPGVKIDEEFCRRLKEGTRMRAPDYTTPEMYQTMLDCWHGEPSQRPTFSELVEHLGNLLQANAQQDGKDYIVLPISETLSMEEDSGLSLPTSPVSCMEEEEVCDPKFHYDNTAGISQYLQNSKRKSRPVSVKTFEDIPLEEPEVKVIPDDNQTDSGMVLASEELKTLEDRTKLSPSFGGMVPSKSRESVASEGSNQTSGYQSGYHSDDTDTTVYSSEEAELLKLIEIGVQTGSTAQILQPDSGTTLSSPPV
Description: Inhibition of VEGFR2 (unknown origin) using FAM-labeled peptide as substrate preincubated for 10 mins followed by substrate addition in presence of ATP by mobility shift assay

[3] = target: T2, Mast/stem cell growth factor receptor Kit (Homo sapiens, UniProt P10721)
T2 sequence (P10721 whole entry): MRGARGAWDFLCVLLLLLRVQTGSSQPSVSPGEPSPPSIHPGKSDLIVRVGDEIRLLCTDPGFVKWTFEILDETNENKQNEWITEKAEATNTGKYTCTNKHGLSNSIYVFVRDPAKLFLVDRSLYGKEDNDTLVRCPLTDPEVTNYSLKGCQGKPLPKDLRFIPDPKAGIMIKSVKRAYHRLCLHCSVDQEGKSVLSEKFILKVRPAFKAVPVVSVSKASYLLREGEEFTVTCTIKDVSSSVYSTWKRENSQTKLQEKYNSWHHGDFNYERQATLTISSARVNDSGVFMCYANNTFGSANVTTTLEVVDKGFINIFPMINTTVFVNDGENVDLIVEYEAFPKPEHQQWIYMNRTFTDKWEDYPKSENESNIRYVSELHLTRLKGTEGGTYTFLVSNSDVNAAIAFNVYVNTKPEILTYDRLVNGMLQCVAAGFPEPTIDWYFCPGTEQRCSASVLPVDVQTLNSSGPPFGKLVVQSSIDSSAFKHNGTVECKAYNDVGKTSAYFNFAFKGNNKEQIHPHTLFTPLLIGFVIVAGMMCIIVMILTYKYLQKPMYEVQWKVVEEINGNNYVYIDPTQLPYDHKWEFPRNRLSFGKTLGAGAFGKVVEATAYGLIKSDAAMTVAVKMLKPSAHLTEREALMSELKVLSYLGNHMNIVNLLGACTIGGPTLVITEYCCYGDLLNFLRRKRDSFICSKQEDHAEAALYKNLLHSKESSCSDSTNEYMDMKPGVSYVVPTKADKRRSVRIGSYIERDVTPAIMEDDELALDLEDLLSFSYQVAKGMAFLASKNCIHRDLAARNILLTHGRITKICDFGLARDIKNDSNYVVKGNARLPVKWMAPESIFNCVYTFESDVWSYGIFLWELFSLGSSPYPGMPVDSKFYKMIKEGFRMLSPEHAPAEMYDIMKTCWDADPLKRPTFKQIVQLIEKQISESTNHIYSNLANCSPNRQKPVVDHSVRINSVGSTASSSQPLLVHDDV
Description: Inhibition of cKIT (unknown origin) using FAM-labeled peptide as substrate preincubated for 10 mins followed by substrate addition in presence of ATP by mobility shift assay

[4] = target: T1, Platelet-derived growth factor receptor alpha
Description: Inhibition of TEL-fused PDGFRalpha (unknown origin) expressed in mouse BAF3 cells assessed as cell growth inhibition after 72 hrs by cell titer-glo assay

[5] = test system: Mast/stem cell growth factor receptor Kit (Homo sapiens), P10721 [T670I]
Chain of Mast/stem cell growth factor receptor Kit (Homo sapiens), P10721 [T670I] (P10721 whole entry T670I): as the sequence (P10721 whole entry) above, with T670I counted along it
Description: Inhibition of TEL-fused cKIT T670I mutant (unknown origin) expressed in mouse BAF3 cells assessed as cell growth inhibition after 72 hrs by cell titer-glo assay

[6] = test system: Platelet-derived growth factor receptor alpha (Homo sapiens), P16234 [T674I]
Chain of Platelet-derived growth factor receptor alpha (Homo sapiens), P16234 [T674I] (P16234 whole entry T674I): as the sequence (P16234 whole entry) above, with T674I counted along it
Description: Inhibition of TEL-fused PDGFRalpha T674I mutant (unknown origin) expressed in mouse BAF3 cells assessed as cell growth inhibition after 72 hrs by cell titer-glo assay

[7] = target: T2, Mast/stem cell growth factor receptor Kit; remark: listed apart in the source
Description: Inhibition of TEL-fused cKIT (unknown origin) expressed in mouse BAF3 cells assessed as cell growth inhibition after 72 hrs by cell titer-glo assay

pIC50 [1] | pIC50 [2] | pIC50 [3] | GI50 [4] [nM] | GI50 [5] [nM] | GI50 [6] [nM] | GI50 [7] [nM] | SMILES
< 4.30 | < 4.30 | 4.34 | – | – | – | – | Cc1n[nH]c2nccc(-c3ccc(NC(=O)NCc4ccccc4)cc3)c12
< 4.30 | < 4.30 | 4.67 | – | – | – | – | CCCNC(=O)Nc1ccc(-c2ccnc3[nH]nc(C)c23)cc1
5.95 | 5.06 | 6.49 | – | – | – | – | Cc1n[nH]c2nccc(-c3ccc(NC(=O)NCC(C)C)cc3)c12
6.51 | 5.04 | 8.03 | – | – | – | – | Cc1n[nH]c2nccc(-c3ccc(NC(=O)Nc4ccc(N(C)C)cc4)cc3)c12
7.08 | < 4.30 | 8.06 | – | – | – | – | Cc1n[nH]c2nccc(-c3ccc(NC(=O)NC4Cc5ccccc5C4)cc3)c12
6.24 | 5.21 | 6.84 | 13.3 | > 10000 | > 10000 | > 10000 | Cc1n[nH]c2nccc(-c3ccc(NC(=O)NC4CCCC4)cc3)c12
6.91 | < 4.30 | 7.70 | – | – | – | – | Cc1n[nH]c2nccc(-c3ccc(NC(=O)Nc4ccc5ccccc5c4)cc3)c12
7.19 | 5.25 | 5.74 | – | – | – | – | Cc1ccc(NC(=O)Nc2ccc(-c3ccnc4[nH]nc(C)c34)cc2)cc1
6.74 | 5.39 | 5.62 | – | – | – | – | Cc1n[nH]c2nccc(-c3ccc(NC(=O)Nc4cccc(Cl)c4)cc3)c12
7.08 | 5.16 | 8.59 | – | – | – | – | Cc1n[nH]c2nccc(-c3ccc(NC(=O)Nc4cccc(N(C)C)c4)cc3)c12
6.75 | 5.27 | 7.92 | – | – | – | – | CCN(CC)c1ccc(NC(=O)Nc2ccc(-c3ccnc4[nH]nc(C)c34)cc2)cc1
5.75 | 5.40 | 5.71 | – | – | – | – | Cc1ccc(N2CCN(C)CC2)c(NC(=O)Nc2ccc(-c3ccnc4[nH]nc(C)c34)cc2)c1
6.03 | 5.38 | 5.34 | – | – | – | – | Cc1n[nH]c2nccc(-c3ccc(NC(=O)Nc4ccccc4N4CCN(C)CC4)cc3)c12
7.82 | – | – | 10.4 | 37.1 | 104 | 88.7 | Cc1ccc(F)c(NC(=O)Nc2ccc(-c3cccc4[nH]nc(N)c34)cc2)c1 [LINIFANIB]
6.79 | < 4.30 | 8.46 | – | – | – | – | CCCCCNC(=O)Nc1ccc(-c2ccnc3[nH]nc(C)c23)cc1
5.83 | 4.94 | 5.85 | – | – | – | – | Cc1n[nH]c2nccc(-c3ccc(NC(=O)NC(C)(C)C)cc3)c12
4.67 | < 4.30 | 6.70 | – | – | – | – | Cc1n[nH]c2nccc(-c3ccc(NC(=O)Nc4cccc(C#N)c4)cc3)c12
4.36 | < 4.30 | 4.69 | – | – | – | – | CCCCNC(=O)Nc1ccc(-c2ccnc3[nH]nc(C)c23)cc1
6.67 | 5.21 | 7.72 | – | – | – | – | Cc1n[nH]c2nccc(-c3ccc(NC(=O)Nc4cccc(N5CCN(C)CC5)c4)cc3)c12
6.50 | 5.51 | 7.85 | – | – | – | – | Cc1n[nH]c2nccc(-c3ccc(NC(=O)Nc4cccnc4)cc3)c12
6.41 | 5.46 | 7.29 | – | – | – | – | Cc1n[nH]c2nccc(-c3ccc(NC(=O)NCc4ccco4)cc3)c12
4.72 | 4.58 | 6.40 | – | – | – | – | Cc1ccc(N2CCOCC2)c(NC(=O)Nc2ccc(-c3ccnc4[nH]nc(C)c34)cc2)c1
6.87 | 4.96 | 8.21 | – | – | – | – | Cc1n[nH]c2nccc(-c3ccc(NC(=O)NCCCCc4ccccc4)cc3)c12

pIC50 [1] | pIC50 [2] | pIC50 [3] | GI50 [4] [nM] | GI50 [5] [nM] | GI50 [6] [nM] | GI50 [7] [nM] | SMILES
7.09 | – | 8.43 | – | – | – | – | Cc1n[nH]c2nccc(-c3ccc(NC(=O)NCCc4ccccc4)cc3)c12
< 4.30 | < 4.30 | < 4.30 | 465 | > 10000 | > 10000 | > 10000 | Cc1cccc(NC(=O)Nc2ccc(-c3ccnc4[nH]nc(C(F)(F)F)c34)cc2)c1
6.87 | 4.38 | 7.92 | – | – | – | – | CCN(CC)c1cccc(NC(=O)Nc2ccc(-c3ccnc4[nH]nc(C)c34)cc2)c1
6.39 | 5.62 | 6.92 | – | – | – | – | Cc1n[nH]c2nccc(-c3ccc(NC(=O)Nc4ccn[nH]4)cc3)c12
6.90 | 5.43 | 8.14 | – | – | – | – | Cc1cc(NC(=O)Nc2ccc(-c3ccnc4[nH]nc(C)c34)cc2)ccc1N1CCN(C)CC1
6.33 | 5.39 | 7.11 | – | – | – | – | Cc1n[nH]c2nccc(-c3ccc(NC(=O)NCc4ccccn4)cc3)c12
7.62 | 5.41 | 8.77 | 10.4 | 1670 | 2050 | 3020 | Cc1n[nH]c2nccc(-c3ccc(NC(=O)NCCCc4ccccc4)cc3)c12
7.57 | 4.98 | 8.85 | 10.4 | 1780 | 3180 | 3030 | CCCCCCNC(=O)Nc1ccc(-c2ccnc3[nH]nc(C)c23)cc1
< 4.30 | < 4.30 | 4.41 | – | – | – | – | CCNC(=O)Nc1ccc(-c2ccnc3[nH]nc(C)c23)cc1
5.96 | 5.17 | 5.65 | – | – | – | – | Cc1cc(N2CCN(C)CC2)ccc1NC(=O)Nc1ccc(-c2ccnc3[nH]nc(C)c23)cc1
6.80 | 5.75 | 7.59 | – | – | – | – | Cc1n[nH]c2nccc(-c3ccc(NC(=O)NCc4cccs4)cc3)c12
5.95 | 5.34 | 6.26 | – | – | – | – | Cc1n[nH]c2nccc(-c3ccc(NC(=O)NC4CC4)cc3)c12
< 5.30 | < 4.30 | 5.17 | – | – | – | – | CCc1cccc(NC(=O)Nc2ccc(-c3ccnc4[nH]nc(C(F)(F)F)c34)cc2)c1
5.39 | 4.43 | 5.19 | – | – | – | – | Cc1n[nH]c2nccc(-c3ccc(NC(=O)Nc4ccccc4N4CCOCC4)cc3)c12
7.66 | 5.92 | 8.41 | – | – | – | – | CCc1cccc(NC(=O)Nc2ccc(-c3ccnc4[nH]nc(C)c34)cc2)c1
6.52 | 5.36 | 4.96 | – | – | – | – | Cc1ccccc1NC(=O)Nc1ccc(-c2ccnc3[nH]nc(C)c23)cc1
7.49 | 5.47 | 8.43 | – | – | – | – | CCc1cccc(NC(=O)Nc2ccc(-c3ccnc4[nH]nc(CO)c34)cc2)c1
6.40 | < 4.30 | 7.70 | – | – | – | – | Cc1n[nH]c2nccc(-c3ccc(NC(=O)Nc4ccccn4)cc3)c12
7.01 | < 4.30 | 8.44 | – | – | – | – | Cc1n[nH]c2nccc(-c3ccc(NC(=O)Nc4cccc5ccccc45)cc3)c12
6.58 | 5.21 | 5.32 | – | – | – | – | Cc1n[nH]c2nccc(-c3ccc(NC(=O)Nc4cccc(F)c4)cc3)c12
5.34 | 4.80 | 4.66 | – | – | – | – | Cc1n[nH]c2nccc(-c3ccc(NC(=O)Nc4cccc(CN(C)C)c4)cc3)c12
< 4.30 | < 4.30 | < 4.30 | – | – | – | – | Cc1n[nH]c2nccc(-c3ccc(NC(=O)NC4CCCCC4)cc3)c12
6.14 | 5.30 | 6.50 | – | – | – | – | Cc1n[nH]c2nccc(-c3ccc(NC(=O)NC4CCC4)cc3)c12
